Values of other authors as cited in article PMC6611711 (Molecular cancer therapeutics, 2018).

Experiments:
tumor xenograft = conditions: mice
[1] = system: panel of cancer cell lines; conditions: inhibition of choline kinase alpha (CKα)

In the case of `CN(C)c1cc[n+](CCCCCCCCCCCC[n+]2ccc(N(C)C)cc2)cc1.[Br-].[Br-]` [ICL-CCIC-0019], the Tumor xenograft growth (tumor xenograft) is given as “inhibited tumor xenograft growth in mice” and the “Growth of a panel of cancer cell lines” value [1] is given as “suppressed growth of a panel of cancer cell lines”.
